Five compounds from patent publication US5312923A, “Process for preparing fibrinogen receptor antagonists” (Merck & Co., Inc., priority 1993, dated 1994) can be followed below.

pIC50: −log10 of the molar value.

In this assay the test system is ADP-stimulated platelets. Kind of assay: Inhibition of ADP-stimulated platelet aggregation (gel-filtered human platelets). Particulars: read-out: IC50 (concentration required to inhibit aggregation by 50% relative to a control lacking the compound), gel-filtered human platelets 2×10^8 per ml, fibrinogen 100 ug/ml, Ca^2+ 1 mM, 10 mM ADP, 37° C. The format is cell-based. The procedure: The activity of these fibrinogen receptor antagonists is illustrated below. One test used to evaluate fibrinogen receptor antagonist activity is based on evaluation of inhibition of ADP-stimulated platelets. Aggregation requires that fibrinogen bind to and occupy the platelet fibrinogen receptor site. Inhibitors of fibrinogen binding inhibit aggregation. […] Platelet aggregation is measured at 37° C. in a Chronolog aggregometer. The reaction mixture contains gel-filtered human platelets (2×10^8 per ml), fibrinogen (100 micrograms per ml (ug/ml)), Ca^2+ (1 mM), and the fibrinogen receptor antagonists tested. The aggregation is initiated by adding […] ADP 1 minute after the other components are added. The reaction is then allowed to proceed for at least 2 minutes. The extent of inhibition of aggregation is expressed as the percentage of the rate of aggregation observed in the absence of inhibitor. […] Inhibition of ADP-stimulated platelets is shown below in Table 1, which compares the concentration (dosage) of fibrinogen receptor antagonist required to inhibit aggregation by 50% relative to a control lacking the fibrinogen receptor antagonist.
As for `O=C(O)[C@H](Cc1ccc(OCCCCC2CCNCC2)cc1)NS(=O)(=O)c1ccccc1`, the pIC50 is 7.74.
Take `O=C(O)[C@H](Cc1ccc(OCCCCC2CCNCC2)cc1)NS(=O)(=O)Cc1ccccc1`: the pIC50 was 7.74.
As for `CS(=O)(=O)N[C@@H](Cc1ccc(OCCCCC2CCNCC2)cc1)C(=O)O`, the pIC50 is 7.20.
As for `CCCCS(=O)(=O)N[C@@H](Cc1ccc(OCCCCC2CCNCC2)cc1)C(=O)O`, the pIC50 is 7.82.
The value for `O=C(O)[C@H](Cc1ccc(OCCCCC2CCNCC2)cc1)NS(=O)(=O)CCc1ccccc1` was 7.54.
